# Test results published in article PMC9311539, “Antibacterial Activity against Clinical Isolates and In Vivo Efficacy of Coralmycins” (Antibiotics, 2022).
# Read-outs that look alike come from different tables or passages of the source.
# What was measured:
# [1] = parameters: method as in PMID 34123255; conditions: cited from earlier work
# E. coli ATCC 25922 [2] = tested on: E. coli ATCC 25922; parameters: method as in PMID 34123255; conditions: cited from earlier work
# E. coli ATCC 25922 [3] = tested on: E. coli ATCC 25922; parameters: method as in PMID 34123255; conditions: 37.5 mg/kg/day; cited from earlier work
# MSSA = experiment: MIC, broth microdilution, clinical isolates: MSSA; type: cell-based; conditions: Staphylococcus aureus
# Procedure: (§1) To assess the MICs for antibiotic susceptibility, Gram-positive bacteria isolated from human clinical specimens were obtained from several general hospitals in Seoul, Korea, during 2002–2018. Staphylococcus aureus Giorgio and Streptococcus pneumoniae ATCC49619 were used to test in vivo efficacies against […], in mice.
# (§2) The MICs of the antimicrobial agents were determined by a twofold microdilution broth method, as described by the Clinical and Laboratory Standards Institute. Briefly, test organisms were grown on Mueller–Hinton agar (MHA, BD Difco, Sparks, MD, USA) plates, subcultured into cation-adjusted Mueller–Hinton broth (CAMHB, BD Difco, Sparks, MD, USA), and incubated for 18 h at 35 °C. For S. pneumoniae culture, 5% sheep blood (Hanil Comed, Seongnam, Korea) was added. The cultured bacteria were diluted using phosphate-buffered saline (PBS) to achieve a bacterial cell density of approximately 5 × 10^6 CFU/mL. All test organisms were loaded into 96-well plates containing serial dilutions of the antimicrobial agents to achieve a concentration of 5 × 10^4 CFU/well. The plates were incubated at 35 °C for 18–20 h and examined for bacterial growth.
# MRSA = experiment: MIC, broth microdilution, clinical isolates: MRSA; type: cell-based, Staphylococcus aureus; conditions: for MIC50 / MIC90: Staphylococcus aureus, MRSA
# Procedure: as §1, §2
# [4] = tested on: CNS (coagulase-negative staphylococci); experiment: MIC, broth microdilution, clinical isolates: CNS; type: cell-based
# Procedure: as §1, §2
# VRE = experiment: MIC, broth microdilution, clinical isolates: VRE; type: cell-based, vancomycin-resistant Enterococcus; conditions: Enterococcus, VRE
# Procedure: as §1, §2
# S. pneumoniae = experiment: MIC, broth microdilution, clinical isolates: S. pneumoniae; type: cell-based, Streptococcus pneumoniae
# Procedure: as §1, §2
# [5] = tested on: Vancomycin-sensitive E. faecalis; experiment: MIC, broth microdilution, clinical isolates: vancomycin-sensitive E. faecalis; type: cell-based, Enterococcus faecalis; conditions: Enterococcus faecalis
# Procedure: as §1, §2
# [6] = tested on: Vancomycin-sensitive E. faecium; experiment: MIC, broth microdilution, clinical isolates: vancomycin-sensitive E. faecium; type: cell-based, Enterococcus faecium; conditions: Enterococcus faecium
# Procedure: as §1, §2
# S. aureus Giorgio [7] = experiment: MIC against S. aureus Giorgio; type: cell-based, Staphylococcus aureus; conditions: Staphylococcus aureus
# Procedure: as §2
# S. pneumoniae ATCC49619 [8] = experiment: MIC against S. pneumoniae ATCC49619; type: cell-based; conditions: Streptococcus pneumoniae, ATCC49619
# Procedure: as §2
# MRSA CCARM 3167 [9] = experiment: MIC against MRSA CCARM 3167; type: cell-based; conditions: Staphylococcus aureus
# Procedure: as §2
# VRE 3 [10] = experiment: MIC against VRE 3; type: cell-based, vancomycin-resistant Enterococcus; conditions: Enterococcus
# Procedure: as §2
# S. aureus Giorgio [11] = experiment: Time-kill assay, S. aureus Giorgio; type: cell-based, Staphylococcus aureus
# Procedure: (§3) Time-kill analysis was performed by the NCCLS M26-A method. The test organisms (S. aureus Giorgio, S. pneumoniae ATCC49619, MRSA CCARM 3167, and VRE 3) incubated in CAMHB for 18 h at 35 °C were diluted to 10^5 CFU/mL with fresh CAMHB, and the diluted cultures were preincubated for 2 h. For S. pneumoniae culture, 5% sheep blood (Hanil Comed, Seongnam, Korea) was added. […] Culture aliquots (0.1 mL) were removed after 0, 2, 4, 6 and 24 h of incubation, and serial 10-fold dilutions were prepared in saline as needed. The numbers of viable cells were determined on drug-free MHA plates after 20 h of incubation. A compound was considered bactericidal if the original inoculum was reduced by 3 log CFU/mL (99.9%) at each concentration or was considered bacteriostatic if the inoculum was reduced by 0–3 log CFU/mL.
# S. pneumoniae ATCC49619 [12] = experiment: Time-kill assay, S. pneumoniae ATCC49619; type: cell-based, Streptococcus pneumoniae
# Procedure: as §3
# MRSA CCARM 3167 [13] = experiment: Time-kill assay, MRSA CCARM 3167; type: cell-based, Staphylococcus aureus
# Procedure: as §3
# VRE 3 [14] = experiment: Time-kill assay, VRE 3; type: cell-based, vancomycin-resistant Enterococcus
# Procedure: as §3
# S. aureus Giorgio [15] = experiment: Neutropenic mouse thigh infection model; type: in vivo, female ICR mice
# Procedure: (§4) For the respiratory tract infection model, neutropenic mice were anesthetized and intranasally inoculated with a 50 μL suspension of S. pneumoniae ATCC49619 (4.4 × 10^8 CFU/mL). For the thigh infection model, the neutropenic mice were administered an intramuscular injection of a 100 μL suspension of S. aureus Giorgio (1 × 10^6 CFU/mL) into both thighs. For both models, four mice were included in each group. At 2 h after infection, two mice were sacrificed, and the infected thighs or lungs (n = 4) were excised to determine the initial bacterial levels. […] At 24 h after infection, the mice were sacrificed by cervical dislocation; their thighs or lungs were removed, homogenized, serially diluted with saline, and plated onto MHA to count the number of bacteria remaining. The number of viable bacterial cells (CFU) in the thighs or lungs of vehicle- and drug-treated mice was determined.
# S. pneumoniae ATCC49619 [16] = experiment: Neutropenic mouse respiratory tract infection model; type: in vivo, female ICR mice; conditions: for reduction of the starting bacterial burden compared to the 2-h control group: second trial
# Procedure: as §4
# in vivo = conditions: female, ICR, mouse, plasma
# S. aureus = tested on: S. aureus; parameters: method as in PMID 28416551; conditions: s.c., cited from earlier work
# [17] = cited from earlier work
# [18] = 32 clinical isolates, read-out: MIC50
# [19] = 32 clinical isolates, read-out: MIC90
# [20] = s.c. 4 and 20 mg/kg at 3 and 6 h after infection
structure (smiles),measurement,setting,value
CC(C)Oc1c(NC(=O)c2ccc(NC(=O)C(CC(N)=O)NC(=O)c3ccc(NC(=O)c4ccc(C#N)cc4)cc3)cc2)ccc(C(=O)Nc2ccc(C(=O)O)cc2)c1O (stereo not shown) [CN-DM-861],"detection in tissues (thigh, kidney, lung)",[1]; after s.c. administration,well detected
same,AUC,[1]; i.v. 5 mg/kg,approximately 2 μg·h/mL
same,T1/2,[1]; i.v. 5 mg/kg,approximately 1 h
same,Vdss,[1]; i.v. 5 mg/kg,3.5 L/kg
same,bioavailability,[1]; reported,25%
same,AUC/MIC ratio,"[1]; s.c. 5 mg/kg, MIC against E. coli ATCC 25922",159.5
same,AUC,[1]; s.c. 5 mg/kg,517 ng·h/mL
same,Cmax,[1]; s.c. 5 mg/kg,128 ng/mL
same,Tmax,[1]; s.c. 5 mg/kg,1.7 h
same,MIC,E. coli ATCC 25922 [2],0.02 mg/L
same,in vivo effect in three mouse models,E. coli ATCC 25922 [3],potent bactericidal effects
CO[C@@H](C(N)=O)[C@H](NC(=O)c1ccc(NC(=O)c2ccc([N+](=O)[O-])cc2)cc1)C(=O)Nc1ccc(C(=O)Nc2ccc(C(=O)Nc3ccc(C(=O)O)cc3OC(C)C)c(O)c2OC(C)C)cc1 [DH-coralmycin A],MIC50,"MSSA; 26 clinical isolates, read-out: MIC50",1 µg/mL
same,MIC90,"MSSA; 26 clinical isolates, read-out: MIC90",2 µg/mL
same,MIC50,"MRSA; 42 clinical isolates, read-out: MIC50",4 µg/mL
same,MIC90,"MRSA; 42 clinical isolates, read-out: MIC90",8 µg/mL
same,times less active than coralmycin A as evidenced by the MIC90,"MRSA; against MRSA, CNS, and VRE",8 to 16 times
same,MIC50,"[4]; 31 clinical isolates, read-out: MIC50",1 µg/mL
same,MIC90,"[4]; 31 clinical isolates, read-out: MIC90",16 µg/mL
same,MIC50,"VRE; 46 clinical isolates, read-out: MIC50",4 µg/mL
same,MIC90,"VRE; 46 clinical isolates, read-out: MIC90",16 µg/mL
same,MIC50,"S. pneumoniae; Streptococcus pneumoniae, 27 clinical isolates, read-out: MIC50",0.5 µg/mL
same,MIC90,"S. pneumoniae; Streptococcus pneumoniae, 27 clinical isolates, read-out: MIC90",4 µg/mL
same,MIC50,[5]; [18],2 µg/mL
same,MIC90,[5]; [19],4 µg/mL
same,MIC50,[6]; [18],1 µg/mL
same,MIC90,[6]; [19],4 µg/mL
same,MIC,S. aureus Giorgio [7]; read-out: MIC,0.06 µg/mL
same,MIC,S. pneumoniae ATCC49619 [8]; read-out: MIC,0.25 µg/mL
same,MIC,MRSA CCARM 3167 [9]; read-out: MIC,0.25 µg/mL
same,MIC,VRE 3 [10]; read-out: MIC,2 µg/mL
same,time-kill activity,S. aureus Giorgio [11]; 1× MIC,bacteriostatic (considered bacteriostatic if the inoculum was reduced by 0–3 log CFU/mL)
same,time-kill activity,"S. aureus Giorgio [11]; 2× and 4× MIC, 24 h",bactericidal (considered bactericidal if the original inoculum was reduced by 3 log CFU/mL (99.9%) at each concentration)
same,time-kill activity,S. pneumoniae ATCC49619 [12]; 1× MIC,bacteriostatic (considered bacteriostatic if the inoculum was reduced by 0–3 log CFU/mL)
same,time-kill activity,"S. pneumoniae ATCC49619 [12]; 2× and 4× MIC, 24 h",bactericidal (considered bactericidal if the original inoculum was reduced by 3 log CFU/mL (99.9%) at each concentration)
same,time-kill activity,MRSA CCARM 3167 [13]; 1× MIC,bacteriostatic (considered bacteriostatic if the inoculum was reduced by 0–3 log CFU/mL)
same,time-kill activity,"MRSA CCARM 3167 [13]; 2× and 4× MIC, 24 h",bactericidal (considered bactericidal if the original inoculum was reduced by 3 log CFU/mL (99.9%) at each concentration)
same,time-kill activity,VRE 3 [14]; 1× MIC,bacteriostatic (considered bacteriostatic if the inoculum was reduced by 0–3 log CFU/mL)
same,time-kill activity,"VRE 3 [14]; 2× and 4× MIC, 24 h",bactericidal (considered bactericidal if the original inoculum was reduced by 3 log CFU/mL (99.9%) at each concentration)
same,antibacterial effect in thigh infection model,S. aureus Giorgio [15]; 20 mg/kg bid,almost no antibacterial effect
same,antibacterial effect in thigh infection model,S. aureus Giorgio [15]; [20],almost no antibacterial effect
same,in vivo effect (bacteriostatic or bactericidal),S. pneumoniae ATCC49619 [16]; 4 mg/kg bid s.c.,static effect
same,in vivo effect (bacteriostatic or bactericidal),S. pneumoniae ATCC49619 [16]; 20 mg/kg bid s.c.,static effect
same,in vivo effect (bacteriostatic or bactericidal),S. pneumoniae ATCC49619 [16]; 100 mg/kg bid s.c.,bactericidal effects
same,antibacterial effect in respiratory tract infection model,"S. pneumoniae ATCC49619 [16]; first experiment, s.c. 4 and 20 mg/kg at 3 and 6 h after infection",significant antibacterial effects
same,reduction of the starting bacterial burden compared to the 2-h control group,S. pneumoniae ATCC49619 [16]; s.c. 100 mg/kg bid,0.96 log10 CFU/lung
same,half-life,"in vivo; iv, 2 mg/kg",130 ± 64.8 min
same,half-life,"in vivo; sc, 20 mg/kg",421 ± 73.2 min
CN[C@H](CC(C)C)C(=O)N[C@H]1C(=O)N[C@@H](CC(N)=O)C(=O)N[C@H]2C(=O)N[C@H]3C(=O)N[C@H](C(=O)N[C@H](C(=O)O)c4cc(O)cc(O)c4-c4cc3ccc4O)[C@H](O)c3ccc(c(Cl)c3)Oc3cc2cc(c3O[C@@H]2O[C@H](CO)[C@@H](O)[C@H](O)[C@H]2O[C@H]2C[C@](C)(N)[C@H](O)[C@H](C)O2)Oc2ccc(cc2Cl)[C@H]1O [Vancomycin],MIC50,MSSA,1 µg/mL
same,MIC90,MSSA,2 µg/mL
same,MIC50,MRSA,1 µg/mL
same,MIC90,MRSA,2 µg/mL
same,MIC50,[4],2 µg/mL
same,MIC90,[4],4 µg/mL
same,MIC50,VRE,> 32 µg/mL
same,MIC90,VRE,> 32 µg/mL
same,MIC90,S. pneumoniae; 27 clinical isolates,0.5 µg/mL
same,MIC50,S. pneumoniae; Streptococcus pneumoniae,0.25 µg/mL
same,MIC90,S. pneumoniae; Streptococcus pneumoniae,0.5 µg/mL
same,MIC50,[5],2 µg/mL
same,MIC90,[5],2 µg/mL
same,MIC50,[6],1 µg/mL
same,MIC90,[6],2 µg/mL
same,MIC,S. aureus Giorgio [7],2 µg/mL
same,MIC,S. pneumoniae ATCC49619 [8],0.5 µg/mL
same,MIC,MRSA CCARM 3167 [9],2 µg/mL
same,MIC,VRE 3 [10],64 µg/mL
same,time-kill activity,"S. aureus Giorgio [11]; 2× and 4× MIC, 24 h",bactericidal (considered bactericidal if the original inoculum was reduced by 3 log CFU/mL (99.9%) at each concentration)
same,time-kill activity,"S. pneumoniae ATCC49619 [12]; 2× and 4× MIC, 24 h",bactericidal (considered bactericidal if the original inoculum was reduced by 3 log CFU/mL (99.9%) at each concentration)
same,time-kill activity,"MRSA CCARM 3167 [13]; 2× and 4× MIC, 24 h",bactericidal (considered bactericidal if the original inoculum was reduced by 3 log CFU/mL (99.9%) at each concentration)
same,antibacterial effect in thigh infection model,S. aureus Giorgio [15]; [20],bacteriostatic activity
same,in vivo effect (bacteriostatic or bactericidal),S. pneumoniae ATCC49619 [16]; 4 mg/kg bid s.c.,bacteriostatic
same,in vivo effect (bacteriostatic or bactericidal),S. pneumoniae ATCC49619 [16]; 20 mg/kg bid s.c.,bactericidal
same,reduction of the starting bacterial burden compared to the 2-h control group,S. pneumoniae ATCC49619 [16]; 20 mg/kg bid,1.46 log10 CFU/lung
same,in vivo effect,S. aureus; high doses of 20–320 mg/kg bid,bactericidal effects
same,in vivo effect,S. aureus; low doses of 0.3–5 mg/kg bid,bacteriostatic effects
same,bound to plasma proteins,[17],10–50%
